Reference: ChEMBL document CHEMBL3880402, “Inhibitors of E1 activating enzymes” (2006)

Target: T1, NEDD8-activating enzyme E1 catalytic subunit (Homo sapiens, UniProt Q8TBC4)
T1 sequence (Q8TBC4 whole entry): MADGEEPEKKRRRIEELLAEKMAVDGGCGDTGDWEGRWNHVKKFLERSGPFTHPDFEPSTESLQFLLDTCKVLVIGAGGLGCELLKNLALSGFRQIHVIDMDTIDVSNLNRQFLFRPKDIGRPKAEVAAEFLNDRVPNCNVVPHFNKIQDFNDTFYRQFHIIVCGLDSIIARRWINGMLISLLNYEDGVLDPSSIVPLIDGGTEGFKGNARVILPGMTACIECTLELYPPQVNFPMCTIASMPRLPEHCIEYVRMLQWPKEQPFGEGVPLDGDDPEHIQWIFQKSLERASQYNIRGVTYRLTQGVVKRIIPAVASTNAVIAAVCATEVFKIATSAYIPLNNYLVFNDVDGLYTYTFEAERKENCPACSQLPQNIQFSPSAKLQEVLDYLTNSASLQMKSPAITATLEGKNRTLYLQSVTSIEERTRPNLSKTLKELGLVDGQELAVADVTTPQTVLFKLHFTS
Test: Inhibition of recombinant human untagged NAEalpha/N-terminal His-tagged NAEbeta expressed in Bac-to-Bac expression system using FLAG-tagged NEDD8 as substrate after 90 mins in presence of GST-tagged Ubc12 by HTRF assay

Row | SMILES | IC50 [µM]
1 | NS(=O)(=O)OC[C@H]1C[C@@H](n2cnc3c(C#Cc4ccccc4)ncnc32)C[C@@H]1O | 0.1 to 1
2 | NS(=O)(=O)OC[C@H]1O[C@@H](n2cnc3c(NCc4ccccc4)ncnc32)[C@H](O)[C@@H]1O | 0.1 to 1
3 | CO[C@@H]1[C@H](O)[C@@H](COS(N)(=O)=O)O[C@H]1n1cnc2c(N[C@H]3CCc4ccccc43)ncnc21 | 0.1 to 1
4 | NS(=O)(=O)OC[C@H]1O[C@@H](n2cnc3c(NCC4CCCCC4)ncnc32)[C@H](O)[C@@H]1O | 0.1 to 1
5 | NS(=O)(=O)NC[C@H]1O[C@@H](n2cnc3c(NCCOc4ccccc4)ncnc32)[C@H](O)[C@@H]1O | ≤ 1
6 | NS(=O)(=O)OC[C@H]1O[C@@H](n2cnc3c(C#Cc4ccccc4)ncnc32)[C@H](O)[C@@H]1O | 0.1 to 1
7 | NS(=O)(=O)NC[C@H]1C[C@@H](n2cnc3c(N[C@H]4CCc5ccccc54)ncnc32)[C@H](O)[C@@H]1O | 0.1 to 1
8 | NS(=O)(=O)OC[C@H]1O[C@@H](n2cnc3c(C#Cc4cccc(Cl)c4)ncnc32)[C@H](O)[C@@H]1O | 0.1 to 1
9 | NS(=O)(=O)NC[C@H]1O[C@@H](n2cnc3c(N[C@H]4CCc5ccccc54)ncnc32)[C@H](O)[C@@H]1O | 0.1 to 1
10 | NS(=O)(=O)OC[C@@H]1C[C@@H](O)[C@H](n2cnc3c(N[C@H]4CCc5ccccc54)ncnc32)O1 | 0.1 to 1
11 | NS(=O)(=O)OC[C@H]1O[C@@H](n2cnc3c(CNC(=O)c4cccnc4)ncnc32)[C@H](O)[C@@H]1O | 0.1 to 1
12 | NS(=O)(=O)OC[C@H]1O[C@@H](n2cnc3c(C#Cc4cccc(F)c4)ncnc32)[C@H](O)[C@@H]1O | 0.1 to 1
13 | NS(=O)(=O)OC[C@H]1O[C@@H](n2cnc3c(C#Cc4ccccc4C(F)(F)F)ncnc32)[C@H](O)[C@@H]1O | 0.1 to 1
14 | NS(=O)(=O)OC[C@H]1O[C@@H](n2cnc3c(Nc4ccc(Cl)cc4)ncnc32)[C@H](O)[C@@H]1O | 0.1 to 1
15 | Nc1nc(N[C@H]2CCc3ccccc32)c2ncn([C@@H]3O[C@H](COS(N)(=O)=O)[C@@H](O)[C@H]3O)c2n1 | 0.1 to 1
16 | NS(=O)(=O)OC[C@H]1O[C@@H](n2cnc3c(NS(=O)(=O)c4ccccc4)ncnc32)[C@H](O)[C@@H]1O | 0.1 to 1
17 | NS(=O)(=O)OC[C@H]1O[C@@H](n2cnc3c(NC(=O)c4ccc(F)cc4)ncnc32)[C@H](O)[C@@H]1O | 0.1 to 1
18 | Cc1cnc(CNc2ncnc3c2ncn3[C@@H]2O[C@H](CNS(N)(=O)=O)[C@@H](O)[C@H]2O)cn1 | ≤ 1
19 | CCCc1ncnc2c1ncn2[C@@H]1C[C@H](COS(N)(=O)=O)[C@@H](O)[C@H]1O | 0.1 to 1
20 | NS(=O)(=O)OC[C@H]1O[C@@H](n2cnc3c(Cc4ccc(F)cc4)ncnc32)[C@H](O)[C@@H]1O | ≤ 1

Row | SMILES | IC50 [µM]
21 | NS(=O)(=O)OC[C@H]1O[C@@H](n2cnc3c(NC(=O)c4ccccc4)ncnc32)[C@H](O)[C@@H]1O | 0.1 to 1
22 | COc1ccc(C#Cc2ncnc3c2ncn3[C@@H]2O[C@H](COS(N)(=O)=O)[C@@H](O)[C@H]2O)cc1 | 0.1 to 1
23 | NS(=O)(=O)NC[C@H]1O[C@@H](n2cnc3c(NC[C@H](O)c4cccc(O)c4)ncnc32)[C@H](O)[C@@H]1O | 0.1 to 1
24 | Cc1ncnc2c1ncn2[C@@H]1O[C@H](COS(N)(=O)=O)[C@@H](O)[C@H]1O | 0.1 to 1
25 | NS(=O)(=O)OC[C@H]1O[C@@H](n2cnc3c(C#Cc4cccc(Br)c4)ncnc32)[C@H](O)[C@@H]1O | 0.1 to 1
26 | COc1ccccc1C(=O)Nc1ncnc2c1ncn2[C@@H]1O[C@H](COS(N)(=O)=O)[C@@H](O)[C@H]1O | 0.1 to 1
27 | NS(=O)(=O)OC[C@H]1O[C@@H](n2cnc3c(NCCN4CCN(Cc5ccccc5)CC4)ncnc32)[C@H](O)[C@@H]1O | 0.1 to 1
28 | NS(=O)(=O)NC[C@H]1O[C@@H](n2cnc3c(N[C@@H](CO)c4ccccc4)ncnc32)[C@H](O)[C@@H]1O | 0.1 to 1
29 | NS(=O)(=O)OC[C@H]1O[C@@H](n2cnc3c(CNC(=O)c4cc(F)cc(F)c4)ncnc32)[C@H](O)[C@@H]1O | 0.1 to 1
30 | NS(=O)(=O)OC[C@H]1O[C@@H](n2cnc3c(C4CC4)ncnc32)[C@H](O)[C@@H]1O | 0.1 to 1
31 | NS(=O)(=O)OC[C@H]1O[C@@H](n2cnc3c(CN4C(=O)c5ccccc5C4=O)ncnc32)[C@H](O)[C@@H]1O | 0.1 to 1
32 | NS(=O)(=O)OC[C@H]1C[C@@H](n2cnc3c(N[C@H]4CCc5ccccc54)ncnc32)[C@H](O)[C@@H]1O | 0.1 to 1
33 | NS(=O)(=O)NC[C@H]1O[C@@H](n2cnc3c(N[C@@H]4c5ccccc5C[C@@H]4O)ncnc32)[C@H](O)[C@@H]1O | 0.1 to 1
34 | NS(=O)(=O)OC[C@H]1O[C@@H](n2cnc3c(NCc4ccccc4)ncnc32)C[C@@H]1O | 0.1 to 1
35 | NS(=O)(=O)OC[C@H]1O[C@@H](n2cnc3c(C#Cc4ccccc4)ncnc32)C[C@@H]1O | 0.1 to 1
36 | NS(=O)(=O)OC[C@H]1O[C@@H](n2cnc3c(N[C@H]4CCc5ccccc54)nc(Cl)nc32)[C@H](O)[C@@H]1O | 0.1 to 1
37 | NS(=O)(=O)NC[C@H]1O[C@@H](n2cnc3c(NCc4cccs4)ncnc32)[C@H](O)[C@@H]1O | 0.1 to 1
38 | NS(=O)(=O)OC[C@H]1C[C@@H](n2cnc3c(C#Cc4ccccc4)ncnc32)[C@H](O)[C@@H]1O | 0.1 to 1
39 | NS(=O)(=O)OC[C@H]1O[C@@H](n2ccc3c(NC(=O)c4ccccc4)ncnc32)C[C@@H]1O | 0.1 to 1

The remaining lines, values ahead:

Row | IC50 [µM] | SMILES
40 | 0.1 to 1 | Cc1cnc(CNc2ncnc3c2ncn3[C@@H]2O[C@H](COS(N)(=O)=O)[C@@H](O)[C@H]2O)cn1
41 | 0.1 to 1 | C[C@@]1(O)[C@H](O)[C@@H](COS(N)(=O)=O)O[C@H]1n1cnc2c(N[C@H]3CCc4ccccc43)ncnc21
42 | 0.1 to 1 | NS(=O)(=O)OC[C@H]1O[C@@H](n2cnc3c(C#Cc4cccc(C(F)(F)F)c4)ncnc32)[C@H](O)[C@@H]1O
43 | 0.1 to 1 | NS(=O)(=O)OC[C@H]1O[C@@H](n2cnc3c(NCCN4CCCC4)ncnc32)[C@H](O)[C@@H]1O
44 | 0.1 to 1 | NS(=O)(=O)NC[C@H]1O[C@@H](n2cnc3c(N[C@@H]4CCc5ccccc54)ncnc32)[C@H](O)[C@@H]1O
45 | 0.1 to 1 | NS(=O)(=O)CC[C@H]1O[C@@H](n2cnc3c(NCc4ccc(Cl)cc4)ncnc32)[C@H](O)[C@@H]1O
46 | 0.1 to 1 | NS(=O)(=O)OC[C@H]1O[C@@H](n2cnc3c(NCc4ccc5c(c4)OCO5)ncnc32)[C@H](O)[C@@H]1O
47 | 0.1 to 1 | Cc1noc(C)c1-c1ncnc2c1ncn2[C@@H]1O[C@H](COS(N)(=O)=O)[C@@H](O)[C@H]1O
48 | 0.1 to 1 | NS(=O)(=O)OC[C@H]1O[C@@H](n2cnc3c(CNC(=O)c4ccccc4)ncnc32)[C@H](O)[C@@H]1O
49 | 0.1 to 1 | NS(=O)(=O)OC[C@H]1O[C@@H](n2ccc3c(N[C@H]4CCc5ccccc54)ncnc32)C[C@@H]1O
50 | ≤ 1 | CC(C)Cc1ncnc2c1ncn2[C@@H]1O[C@H](COS(N)(=O)=O)[C@@H](O)[C@H]1O
51 | 0.1 to 1 | NS(=O)(=O)OC[C@H]1O[C@@H](n2cnc3c(N[C@@H]4c5ccccc5C[C@@H]4O)ncnc32)[C@H](O)[C@@H]1O
52 | 0.1 to 1 | NS(=O)(=O)OC[C@H]1O[C@@H](n2cnc3c(N[C@H]4CCc5ccccc54)ncnc32)[C@H](O)[C@@H]1O
53 | 0.1 to 1 | NS(=O)(=O)OC[C@H]1O[C@@H](n2cnc3c(CC4Cc5ccccc5C4)ncnc32)[C@H](O)[C@@H]1O
54 | 0.1 to 1 | NS(=O)(=O)OC[C@H]1O[C@@H](n2cnc3c(CN4Cc5ccccc5C4)ncnc32)[C@H](O)[C@@H]1O
55 | 0.1 to 1 | NS(=O)(=O)OC[C@H]1O[C@@H](n2cnc3c(N[C@H]4CCc5ccccc54)nccc32)[C@H](O)[C@@H]1O

Row | IC50 [µM] | SMILES
56 | 0.1 to 1 | NS(=O)(=O)OC[C@H]1O[C@@H](n2cnc3c(-c4ccccc4)ncnc32)[C@H](O)[C@@H]1O
57 | 0.1 to 1 | CO[C@H]1[C@H](O)[C@@H](COS(N)(=O)=O)O[C@H]1n1cnc2c(N[C@H]3CCc4ccccc43)ncnc21
58 | 0.1 to 1 | NS(=O)(=O)CC[C@H]1O[C@@H](n2cnc3c(NC(c4ccccc4)c4ccccc4)ncnc32)[C@H](O)[C@@H]1O
59 | ≤ 1 | CC(C)Cc1ncnc2c1ncn2[C@@H]1C[C@H](COS(N)(=O)=O)[C@@H](O)[C@H]1O
60 | 0.1 to 1 | NS(=O)(=O)OC[C@H]1O[C@@H](n2cnc3c(C#Cc4ccc(F)cc4F)ncnc32)[C@H](O)[C@@H]1O
61 | 0.1 to 1 | NS(=O)(=O)NC[C@H]1O[C@@H](n2cnc3c(NCc4cccc5ccccc45)ncnc32)[C@H](O)[C@@H]1O
62 | 0.1 to 1 | COc1ccccc1CNc1ncnc2c1ncn2[C@@H]1O[C@H](COS(N)(=O)=O)[C@@H](O)[C@H]1O
63 | 0.1 to 1 | COc1cccc(CNc2ncnc3c2ncn3[C@@H]2O[C@H](COS(N)(=O)=O)[C@@H](O)[C@H]2O)c1
64 | 0.1 to 1 | COc1ccccc1C#Cc1ncnc2c1ncn2[C@@H]1O[C@H](COS(N)(=O)=O)[C@@H](O)[C@H]1O
65 | 0.1 to 1 | NS(=O)(=O)OC[C@H]1O[C@@H](n2cnc3c(N[C@H]4CCc5ccccc54)ncnc32)[C@@H](O)[C@@H]1O
66 | 0.1 to 1 | CC1(C)CC(Nc2ncnc3c2ncn3[C@@H]2O[C@H](CCS(N)(=O)=O)[C@@H](O)[C@H]2O)c2ccccc21 (stereo partly specified)
67 | 0.1 to 1 | NS(=O)(=O)OC[C@H]1O[C@@H](n2cnc3c(NC(=O)c4ccc(Br)cc4)ncnc32)[C@H](O)[C@@H]1O
68 | 0.1 to 1 | NS(=O)(=O)OC[C@H]1O[C@@H](n2ccc3cncnc32)C[C@@H]1O
69 | 0.1 to 1 | NS(=O)(=O)OC[C@H]1O[C@@H](n2cnc3c(C#Cc4ccccc4Br)ncnc32)[C@H](O)[C@@H]1O
70 | 0.1 to 1 | NS(=O)(=O)OC[C@H]1O[C@@H](n2cnc3c(/C=C/c4ccccc4)ncnc32)[C@H](O)[C@@H]1O
71 | 0.1 to 1 | NS(=O)(=O)OC[C@H]1O[C@@H](n2cnc3c(C#Cc4cc(F)cc(F)c4)ncnc32)[C@H](O)[C@@H]1O
